# Data: patent publication US9556159B2, “Renin inhibitor” (MITSUBISHI TANABE PHARMA CORPORATION, priority 2012, dated 2017)
# Where two headings read alike, the source gives them in different places.
# Molecular target: T1, Recombinant human renin (Homo sapiens, UniProt P00797)
# T1 sequence (P00797 67-406): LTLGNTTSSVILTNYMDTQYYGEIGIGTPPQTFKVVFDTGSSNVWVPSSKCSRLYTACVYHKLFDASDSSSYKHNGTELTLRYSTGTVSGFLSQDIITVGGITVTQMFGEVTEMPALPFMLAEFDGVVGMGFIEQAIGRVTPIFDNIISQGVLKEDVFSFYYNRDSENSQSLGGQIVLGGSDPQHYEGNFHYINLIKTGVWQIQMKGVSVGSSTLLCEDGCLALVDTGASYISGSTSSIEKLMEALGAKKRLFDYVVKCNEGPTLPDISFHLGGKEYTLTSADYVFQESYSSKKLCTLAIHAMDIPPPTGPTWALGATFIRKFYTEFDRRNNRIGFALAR
# Experiment: Inhibitory activity against human renin (fluorogenic peptide substrate)
# Assay type: biochemical
# Conditions: 37° C. for 1 hour
# [1] = 50% inhibitory concentration (IC50) against human renin
SMILES,IC50 [1] [nM],IC50 (read-out: IC50) [nM]
CCc1cn(CCCOC)c2cc([C@@H](C)N(C(=O)[C@H]3CNCCO3)C3CC3)nc(Cl)c12 [Example 130],1.5,
COC(=O)NCCCn1nc([C@@H](C)N(C(=O)[C@H]2CN[C@@H](COCC(F)(F)F)CO2)C2CC2)c2ccc(C)nc21 [Example 278],1.2,
CCOC(=O)NCCCn1nc([C@@H](C)N(C(=O)[C@H]2CNCCO2)C2CC2)c2ccc(C)nc21 [Example 58],,1.6
COC(=O)NCCCc1cc([C@@H](C)N(C(=O)[C@H]2CNCCO2)C2CC2)cnc1O[C@H]1CCOC1 [Example 443],2,
COC(=O)NCCCn1cc([C@@H](C)N(C(=O)[C@H]2CNC[C@@H](CF)O2)C2CC2)nc1C1CCOCC1 [Example 404],0.7,
COC(=O)NCCCc1cc([C@@H](C)N(C(=O)[C@H]2CNC[C@@H](C)O2)C2CC2)cc(OC)n1 [Example 238],0.6,
COCCCCn1nc([C@@H](C)N(C(=O)[C@H]2CNCCO2)C2CC2)cc1-c1ccccn1 [Example 205],1.4,
COCCCCc1cc(C(C)N(C(=O)[C@H]2CNCCO2)C2CC2)cnc1OC (stereo partly shown) [Example 25],,6.3
CCc1cnc2c([C@@H](C)N(C(=O)[C@H]3CNCCO3)C3CC3)cn(CCCCOC)c2c1 [Example 35],,0.4
CCc1ncc([C@@H](C)N(C(=O)[C@H]2CNCCO2)C2CC2)cc1CCCCOC [Example 126],6,
COCCCc1nn(C)c2ccc([C@@H](C)N(C(=O)[C@H]3CNCCO3)C3CC3)cc12 [Example 15],,2.6
COCCCCn1cc([C@H](C)N(C(=O)[C@H]2CNCCO2)C2CC2)c2nccc(OC)c21 [Example 51],,8.8
CCc1nc([C@@H](C)N(C(=O)[C@H]2CNC[C@@H](COC)O2)C2CC2)cc2c1ncn2CCCOC [Example 394],0.6,

# More lines, now with the values ahead:
IC50 [1] [nM],IC50 (read-out: IC50) [nM],SMILES
3.9,,COC(=O)NCCCc1cc([C@@H](C)N(C(=O)[C@H]2CNCCO2)C2CC2)sc1-c1cc(C(F)(F)F)ccc1C(=O)OC [Example 262]
0.4,,COC(=O)NCCCc1cc([C@@H](C)N(C(=O)[C@H]2CNCCO2)C2CC2)sc1C(F)(F)F [Example 246]
,1.2,COCc1ccc2c([C@@H](C)N(C(=O)[C@H]3CNCCO3)C3CC3)nn(CCCNC(=O)OC)c2n1 [Example 105]
,8.3,COc1ccc([C@@H](C)N(C(=O)[C@H]2CNCCO2)C2CC2)cc1CCCNC(C)=O [Example 27]
,0.7,"COC(=O)NCCCn1cc([C@@H](C)N(C(=O)[C@H]2CNCCO2)C2CC2)nc1OC(C)C [Example 5, methyl (3-{4-[(1R)-1-{cyclopropyl[(2R)-morpholin-2-ylcarbonyl]amino}ethyl]-2-(propan-2-yloxy)-1H-imidazol-1-yl}propyl)carbamate]"
,0.6,COC(=O)NCCCn1cc([C@@H](C)N(C(=O)[C@H]2CNCCO2)C2CC2)c2ncccc21 [Example 43]
6.1,,COC(=O)NCCCc1cc([C@@H](C)N(C(=O)[C@H]2CNCCO2)C2CC2)sc1Cc1nnn[nH]1 [Example 272]
1.1,,COC(=O)NCCCc1nc([C@@H](C)N(C(=O)[C@H]2CNCCO2)C2CC2)sc1-c1ccc(C)nc1 [Example 408]
,1.9,COC(=O)NCCCc1cc(F)cc([C@@H](C)N(C(=O)[C@H]2CNCCO2)C2CC2)c1 [Example 92]
2.1,,CCn1nc([C@@H](C)N(C(=O)[C@H]2CNCCO2)C2CC2)cc1CCCNC(=O)OC [Example 209]
0.5,,COC(=O)NCCCc1cc([C@@H](C)N(C(=O)[C@H]2CNCCO2)C2CC2)nc2ccccc12 [Example 119]
8,,COC(=O)NCCCc1nc([C@@H](C)N(C(=O)[C@H]2CNCCO2)C2CC2)sc1C(=O)Nc1ccccc1OC [Example 439]
,0.3,COC(=O)NCCCn1cc([C@@H](C)N(C(=O)[C@H]2CNCCO2)C2CC2)c2cc(F)cnc21 [Example 75]
1.7,,CCc1cc(CCCNC(=O)OC)cc([C@@H](C)N(C(=O)[C@H]2CNCCO2)C2CC2)n1 [Example 120]
2.3,,COC(=O)NCCCc1nc([C@H](C)N(C(=O)[C@H]2CNCCO2)C2CC2)sc1-c1ccc(F)cc1 [Example 402]
